From patent US7345091B2, “Carotenoid ether analogs or derivatives for the inhibition and amelioration of disease” (Cardax Pharmaceuticals, Inc., priority 2002, dated 2008)

Assays:
superoxide anion = experiment: Superoxide anion scavenging by EPR (DEPMPO spin trap) in phorbol ester-stimulated isolated neutrophils; assay type: cell-based, human; details: for Mean (% inhibition) of superoxide anion signal: 0.1 mM; for reduction of superoxide anion signal: aqueous
Procedure: In an experiment, neutrophils were isolated on a Percoll gradient from whole blood from a human volunteer. The isolated neutrophils were then re-suspended in phosphate-buffered saline, and maximally stimulated with phorbol ester to induce the respiratory burst and production of superoxide anion. To the solution of activated human neutrophils, the disodium salt disuccinate astaxanthin derivative XVI was added at various concentrations, and the superoxide signal [as measured with electron paramagnetic resonance (EPR) spectroscopy] was subsequently measured. […] The disodium salt disuccinate astaxanthin derivative XVI tested at 100 μM scavenged 28% of the total signal. At 3 mM, almost no superoxide signal remained. […] In addition to reducing the superoxide anion signal important in ischemia-reperfusion injury, it is also likely that myocardial salvage can be achieved with the described carotenoid derivative, as superoxide anion plays a major role in tissue injury and death during prolonged myocardial ischemia. In a third experiment, neutrophils were again isolated on a Percoll gradient from whole blood from a second human volunteer. The isolated neutrophils were then re-suspended in phosphate-buffered saline, and maximally stimulated with phorbol ester to induce the respiratory burst and production of superoxide anion. […] Astaxanthin 2E was dissolved in HPLC grade dimethylsulfoxide (DMSO; Sigma-Aldrich, St. Louis, Mo.). The disodium disuccinate derivatives XVI of astaxanthin 2E were tested separately in […] formulations: statistical mixture of stereoisomers (as for astaxanthin, above, a 1:2:1 mixture of all-E; labeled as “mixture” in all tables and figures); 3S,3'S, and 3R,3'R (optical isomers or enantiomers); and meso (mixture of identical 3S,3'R and 3'S,3R; diastereomers of the enantiomeric pair). […] The disuccinate derivatives were first tested at the appropriate final concentrations in pure aqueous solution (deionized water) from stock solutions of 10 mM. Each of the four disuccinate derivatives were then tested from stock solutions prepared in a 1:2 mixture of ethanol (final concentration of EtOH in stock solution 331⁄3%; final concentration in isolated neutrophil assay 0.3%; HPLC grade ethanol, Sigma-Aldrich, St. Louis, Mo.) at 10 mM. […] Metaphore® Pharmaceuticals, Inc., St. Louis, Mo.) were also performed. Human polymorphonuclear leukocytes (PMNs) were isolated from freshly sampled venous blood of a single volunteer by Percoll density gradient centrifugation, which yielded PMNs with a purity of >95%. Each 10 mL of whole blood was mixed with 0.8 mL of 0.1 M EDTA and 25 mL of saline. The diluted blood was layered over 9 mL of Percoll at a specific density of 1.080 g/mL. After centrifugation at 400×g for 20 min at 20° C., the plasma, mononuclear cell, and Percoll layers were removed. Erythrocytes were lysed by addition of 18 mL of ice-cold water for 30 s, followed by 2 mL of 10× PIPES buffer (25 mM PIPES, 110 mM NaCl, and 5 mM KCl, titrated to pH 7.4 with NaOH). Cells were pelleted at 4° C., the supernatant was decanted, and the procedure was repeated. After the second hypotonic lysis, cells were washed twice with PAG buffer (PIPES buffer containing 0.003% human serum albumin and 0.1% glucose). Afterward, PMNs were counted by light microscopy on a hemocytometer. The final pellet was then suspended in PAG-CM buffer (PAG buffer with 1 mM CaCl2 and 1 mM MgCl2). All EPR measurements were performed using a Bruker ER 300 EPR spectrometer operating at X-band with a TM110 cavity. The microwave frequency was measured with a Model 575 microwave counter (EIP Microwave, Inc., San Jose, Calif.). To measure O^ -2 generation from phorbol-ester (PMA)-stimulated PMNs, EPR spin-trapping studies were performed using DEPMPO (Oxis, Portland, Oreg.) at 10 mM. 1×10^6 PMNs were stimulated with PMA (1 ng/mL) and loaded into capillary tubes for EPR measurements. […]

[1] = molecular target: human serum albumin (HSA) (Homo sapiens, UniProt P02768)
human serum albumin (HSA), sequence (P02768 25-609): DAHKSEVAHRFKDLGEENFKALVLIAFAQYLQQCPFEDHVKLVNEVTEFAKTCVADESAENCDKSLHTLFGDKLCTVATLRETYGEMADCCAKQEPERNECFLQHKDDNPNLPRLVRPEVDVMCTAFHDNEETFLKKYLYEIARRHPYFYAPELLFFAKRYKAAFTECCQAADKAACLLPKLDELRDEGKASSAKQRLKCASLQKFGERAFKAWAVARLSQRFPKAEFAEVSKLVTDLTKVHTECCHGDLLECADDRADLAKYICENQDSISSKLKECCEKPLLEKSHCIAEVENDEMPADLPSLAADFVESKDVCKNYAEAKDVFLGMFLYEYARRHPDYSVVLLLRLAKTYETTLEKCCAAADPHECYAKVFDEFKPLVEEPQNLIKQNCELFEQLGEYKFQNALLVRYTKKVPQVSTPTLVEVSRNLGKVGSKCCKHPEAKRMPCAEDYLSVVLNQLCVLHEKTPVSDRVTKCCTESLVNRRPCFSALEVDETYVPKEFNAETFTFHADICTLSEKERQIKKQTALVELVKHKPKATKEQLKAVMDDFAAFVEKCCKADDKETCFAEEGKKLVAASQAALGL
Procedure: For spectroscopic sample preparation, HSA was dissolved in pH 7.4 Ringer or 0.1 M pH 7.4 phosphate buffer solutions. Albumin concentration was calculated with the value of E1cm^1%=5.31, using experimentally obtained absorbance data at 279 nm. The molecular weight of HSA was defined as 66500 Da.
CD and UV spectra were recorded on a Jasco J-715 spectropolarimeter at 25±0.2 and 37±0.2° C. in a rectangular cuvette with 1 cm pathlength. Temperature control was provided by a Peltier thermostat equipped with magnetic stirring. All spectra were accumulated three times with a bandwidth of 1.0 nm and a resolution of 0.5 nm at a scan speed of 100 nm/min. Induced CD was defined as the CD of the dAST XVI-HSA mixture minus the CD of HSA alone at the same wavelengths, and is expressed as ellipticity in millidegrees (mdeg).
Ringer buffer, I/P values from 0.007 to 0.10: 2 mL of 1.6×10^−4 M HSA solution was placed in the cuvette with 1 cm optical pathlength and small amounts of the ligand stock solution (c=2.2×10^−4) were added with an automatic pipette in 10 μL aliquots. Ringer buffer, L/P values from 0.82 to 13.13: 2 ml of 2.3×10^−6 M HSA solution was placed in the cuvette with 1 cm optical pathlength and μL volumes of the ligand stock solution (c=3.9×10^−4) were added with an automatic pipette. Phosphate buffer, L/P values from 0.82 to 13.10: 2 mL of 2.2×10^−6 M HSA solution was placed in the cuvette with 1 cm optical pathlength and μL volumes of the ligand stock solution (c=3.6×10^−4) were added with an automatic pipette.
2 mL of 4.2×10^−6 M HSA solution was prepared in a 1 cm rectangular cell in 0.1 M pH 7.4 phosphate buffer. […] Total fluorescence intensity was collected at each wavelength with a Hamamatsu H5784-type photomultiplier detector mounted on a right angle to the light source. […] A control experiment was also performed, in which the fluorescence of HSA during addition of 20, 50 and 100 μL DMSO to the solution was measured.

Cx43 protein = Cx43 protein expression by stereoisomer forms (immuno-(Western) blotting, 4 days); assay type: cell-based, mouse; details: 1×10^-5 M in 1:2 ethanol/H2O, four days; vs 1:2 ethanol/H2O alone
Procedure: (2) Molecular Studies. […] Briefly, mouse embryonic fibroblast C3H10T1/2 cells were cultured in Eagle's basal medium with Earle's salts (Atlanta Biologicals, Atlanta, Ga.), supplemented with 5% fetal calf serum (Atlanta Biologicals, Atlanta, Ga.) and 25 μg/mL gentamicin sulfate (Sigma, St. Louis, Mo.), and incubated at 37° C. in 5% CO2. On the 7th day after seeding in 100 millimeter (mm) dishes, the confluent cells were treated for four days with the disodium salt disuccinate astaxanthin derivatives XVI and then harvested and analyzed for Cx43 protein induction as described. Protein content was measured using the Protein Assay Reagent kit (Pierce Chemical Co., Rockford, Ill.) according to manufacturer's instructions. Cell lysates containing 100 μg of protein were analyzed by Western blotting using the NuPage western blotting kit and apparatus (Invitrogen, Carlsbad, Calif.) and Cx43 protein detected using a rabbit polyclonal antibody (Zymed, San Francisco, Calif.) raised against a synthetic polypeptide corresponding to the C-terminal domain of mouse, human and rat Cx43. Cx43 immunoreactive bands were visualized by chemiluminescence using an anti-rabbit HRP-conjugated secondary antibody (Pierce Chemical Co., Rockford, Ill.). Digital images were obtained with a cooled CCD camera, and quantitative densitometry was then performed (Bio-Rad, Richmond, Calif.).

[2] = Determination of water solubility; assay type: physicochemical
Procedure: A total of 30 mg of sample (disodium disuccinate astaxanthin derivative, as the all-trans mixture of stereoisomers 3S,3′S, meso, and 3R,3′R in a 1:2:1 ratio) was added to 2 mL of sterile-filtered ([…] Millipore®) deionized (DI) water in a 15 mL glass centrifuge tube. The tube was wrapped in aluminum foil and the mixture was shaken for 2 hours, then centrifuged at 3500 rpm for 10 minutes. The aqueous solution was filtered through a 0.45 micron PVDF disposable filter device. A 1 mL volume of filtrate was then diluted appropriately with DI water, and the concentration of the solution was measured at 480 nm using a four point calibration curve prepared from fresh sample.

[3] = tested on: connexin 43 protein expression; experiment: Induction of connexin 43 protein expression (Western blot, 96 hours); assay type: cell-based, mouse; details: 10^-8 M, 96-hour time point
Procedure: In brief, mouse embryonic fibroblast CH3/10T^1/2 cells were treated with the following formulations in a 4 mL cell culture system with media containing 2% calf serum: • 1. TTNPB [p-(E)-2-(5,6,7,8-tetrahydro-5,5,8,8-tetramethyl-2-napthyl) propenyl benzoic acid] 10^−8 M in acetone [positive control for connexin 43 upregulation (4 μL in 4 mL] • 2. Disodium salt disuccinate astaxanthin derivative XVI/H2O at 10^−5 M (40 μl in 4 mL) • 3. Disodium salt disuccinate astaxanthin derivative XVI/H2O at 10^−6 M (4 μl in 4 mL) • 4. Disodium salt disuccinate astaxanthin derivative XVI/H2O at 10^−7 M (1:10 dilution and 4 μl in 4 mL) • 5. Disodium salt disuccinate astaxanthin derivative XVI H2O/ethanol [EtOH] formulation at 10^-5 M (40 μl in 4 mL) • 6. Disodium salt disuccinate astaxanthin derivative XVI H2O/EtOH formulation at 10^−6 M (4 μl in 4 mL) • 7. Sterile H2O control (40 μl in 4 mL) • 8. Sterile H2O/EtOH control (20 μL EtOH, 20 μL H2O in 4 mL) • 9. Media control (4 mL)
Cells were harvested after 96 hours incubation with test compounds and control solutions. All media solutions were identical in color, however after treatment with the disodium salt disuccinate astaxanthin derivative XVI at both 10^−5 dilutions, the color subjectively changed to an orange-red color. Cells treated with TTNPB appeared striated with light microscopy, evidence of differentiation to myocytes, an expected result in this cell culture system. After harvest and pelleting of cells, tubes containing both 10^−5 disodium salt disuccinate astaxanthin derivative XVI solutions were bright red; both 10^−6 dilution tubes were a pink color. As documented previously for other colored carotenoids, this was subjective evidence for cellular uptake of the test compounds.
Cells were then lysed, and 50 μg of each protein was electrophoresed on a 10% polyacrylamide gel. The gel was then transferred to a nitrocellulose filter. Total protein was assayed with Coomassie blue staining (FIG. 29; lanes 6, 7, and 9 were smeared secondary to gel transfer, and were not included in the quantitative comparison [FIG. 31)]. […]

C3H/10T1/2 cells = experiment: Assembly of Cx43 into plaques (immunofluorescent staining); assay type: cell-based, mouse; details: 1×10^-8 M in tetrahydrofuran, 4 days
Procedure: In this experiment expression and assembly of Cx43 into plaques was assessed by immunofluorescent staining. Procedures were essentially as described in Zhang (1992). Briefly, confluent cultures of C3H/10T1/2 cells were grown on Permanox plastic 4-chamber slides (Nalge Nunc International, Naperville, Ill.) and treated for 4 days with: (1) the disodium salt disuccinate astaxanthin derivative XVI (statistical mixture of stereoisomers) dissolved in a 1:2 EtOH/H2O formulation; (2) the retinoid TTNPB at 1×10^−8 M in tetrahydrofuran as a positive control; or (3) 1:2 EtOH/H2O as a solvent control. Cells were fixed with −20° C. methanol overnight, washed in buffer, blocked in 1% bovine serum albumin (Sigma, St, Louis, Mo.) in PBS, and incubated with the rabbit polyclonal anti-Cx43 antibody (Zymed, San Francisco, Calif.) as in (2) above and detected with Alexa568 conjugated anti-rabbit secondary (Molecular Probes, Eugene, Oreg.). Slides were illuminated with […] light and images were acquired at a wavelength of 600 nm using the Zeiss Axioscope light microscope and a Roper Scientific cooled CCD camera. […] In cultures treated with solvent as control, such immunoreactive plaques were infrequent and were smaller than those detected in cells treated with the statistical mixture of stereoisomers of the disodium salt disuccinate astaxanthin derivative XVI or with TTNPB as positive control. […]

CC1=C(/C=C/C(C)=C/C=C/C(C)=C/C=C/C=C(C)/C=C/C=C(C)/C=C/C2=C(C)C(=O)[C@H](OC(=O)CCC(=O)[O-])CC2(C)C)C(C)(C)C[C@H](OC(=O)CCC(=O)[O-])C1=O.[Na+].[Na+] [Meso, disodium salt disuccinate derivative XVI (dAST) of synthetic meso-astaxanthin (3R,3′S-dihydroxy-β,β-carotene-4,4′-dione)]
Mean (% inhibition) of superoxide anion signal (superoxide anion; Solvent EtOH (1:2 EtOH/water stock, 0.3% final)): 42.5% | Mean (% inhibition) of superoxide anion signal (superoxide anion; Solvent Water): 15.7% | quenching of the intrinsic fluorescence of HSA ([1]; 0.1 M pH 7.4 phosphate buffer, 37° C.): able to effectively quench the intrinsic fluorescence of HSA | decrease of baseline fluorescence intensity of HSA ([1]; L/P ratio of 0.7, 0.1 M pH 7.4 phosphate buffer, 37° C.): 50% | mode of binding to HSA ([1]; low ligand/protein molar ratios, pH 7.4 Ringer buffer): monomeric form | expression of Cx43 protein (Cx43 protein): increase expression of Cx43 protein

CC(C=CC=C(C)C=CC1=C(C)C(=O)C(OC(=O)CCC(=O)OCC(O)C2OC(=O)C(O)=C2O)CC1(C)C)=CC=CC=C(C)C=CC=C(C)C=CC1=C(C)C(=O)C(OC(=O)CCC(=O)OCC(O)C2OC(=O)C(O)=C2O)CC1(C)C (stereo not drawn) [XXIII, Succinic acid 4-[18-(4-{3-[2-(3,4-dihydroxy-5-oxo-2,5-dihydrofuran-2-yl)-2-hydroxy-ethoxycarbonyl]-propionyloxy}-2,6,6-trimethyl-2-oxo-cyclohex-1-enyl)-3,7,12,16-tetramethyl-octadeca-1,3,5,7,9,11,13,15,17-nonaenyl]-3,5,5-trimethyl-2-oxo-cyclohex-3-enyl ester 2-(3,4-dihydroxy-5-oxo-2,5-dihydrofuran-2-yl)-2-hydroxy-ethyl ester]
increase in radical scavenging potency over the disodium disuccinate astaxanthin derivative (XVI) (superoxide anion): 50 fold | inhibition of superoxide anion signal (superoxide anion; 60 μM, without a co-solvent): nearly complete inhibition | concentration at which complete suppression of the superoxide anion signal was achieved (superoxide anion; activated human neutrophils, EPR): 60 µM | water solubility [2]: highly water soluble

CC1=C(/C=C/C(C)=C/C=C/C(C)=C/C=C/C=C(C)/C=C/C=C(C)/C=C/C2=C(C)C(=O)C(OC(=O)C(N)CCCCN)CC2(C)C)C(C)(C)CC(OC(=O)C(N)CCCCN)C1=O.Cl.Cl.Cl (stereo not drawn) [XX, Tetrahydrochloride Salt of the Dilysinate Ester of Astaxanthin]
reduction of superoxide anion signal (superoxide anion; 1 μM): approximately 5% | reduction of superoxide anion signal (superoxide anion; 3 mM): 98% | solubility at 2 h ([2]; deionized water, water, thermodynamic from solid, pure aqueous formulation): > 50 mg/mL

C/C(=C\c1ccc(C(=O)O)cc1)c1ccc2c(c1)C(C)(C)CCC2(C)C [TTNPB, p-(E)-2-(5,6,7,8-tetrahydro-5,5,8,8-tetramethyl-2-napthyl) propenyl benzoic acid, reference compound]
induction of connexin 43 expression [3]: effective at inducing connexin 43 expression | assembly of immunoreactive Cx43 into plaques (C3H/10T1/2 cells): exhibited assembly of immunoreactive Cx43 into plaques
